Test results: patent US20240381872A1, “SUBSTITUTED 2,3-DIHYDRO[1,3]THIAZOLO[4,5-B]PYRIDINES, SALTS THEREOF AND THEIR USE AS HERBICIDALLY ACTIVE SUBSTANCES” (BAYER AKTIENGESELLSCHAFT, priority 2021, published 2024)

Legend:
Type in all cases: in vivo
Kochia scoparia (KCHSC) [1] = experiment: Herbicidal pre-emergence action, section A (Table A4); details: visual grading after ca. 3 weeks vs untreated controls; for pest or weed control at 1280 g/ha: Bassia scoparia, pre-emergence, 504 h, read-out: pre-emergence activity against KCHSC in %
How it was run: (§1)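 Read-out is visual herbicidal effect in percent (100% = plants died, 0% = as control), graded ca. 3 weeks after treatment. Test compounds as WP or EC were applied to covering soil over sown seeds with 0.5% additive, 600 l water per hectare; greenhouse growth.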

Poa annua (POAAN) = experiment: Herbicidal pre-emergence action, section A (Table A7); details: visual grading after ca. 3 weeks vs untreated controls; for pest or weed control at 320 g/ha: Poa annua, pre-emergence, 504 h, read-out: pre-emergence activity against POAAN in %
How it was run: as §1

Veronica persica (VERPE) = experiment: Herbicidal pre-emergence action, section A (Table A10); details: for pest or weed control at 1280 g/ha: Veronica persica, 504 h, read-out: pre-emergence activity against VERPE in %
How it was run: as §1

[2] = test system: Abutilon theophrasti (ABUTH); experiment: Herbicidal post-emergence action, section B (Table B1); details: rated visually after about 3 weeks
How it was run: (§2)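 In this greenhouse assay, compounds in WP or EC form were applied post-emergence with 0.5% additive at a water rate of 600 liters per hectare. Treatment took place at the one-leaf stage, and injury was rated visually about 3 weeks later against untreated plants.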

Kochia scoparia (KCHSC) [3] = experiment: Herbicidal post-emergence action, section B (Table B4); details: visual rating about 3 weeks after treatment vs untreated controls
How it was run: as §2

[4] = test system: Abutilon theophrasti (ABUTH); experiment: Herbicidal pre-emergence action, section C (Table C1); details: visual grading after ca. 3 weeks vs untreated controls
Text: (§3) Seeds of mono- and dicotyledonous weed plants and crop plants were sown, in plastic or organic planting pots, in sandy loam and covered with soil. The compounds according to the invention, formulated in the form of wettable powders (WP) or as emulsifiable concentrates (EC), were applied to the surface of the covering soil as aqueous suspension or emulsion, with the addition of 0.5% of an additive, at an application rate of 600 l of water/ha (converted). Following treatment, the pots were placed in a greenhouse and kept under optimum growth conditions for the test plants. The visual grading of the damage to the test plants was carried out after ca. 3 weeks in comparison to untreated controls (herbicidal effect in percent (%): 100% effect=plants have died off, 0% effect=as control plants).

[5] = test system: Echinochloa crus-galli (ECHCG); experiment: Herbicidal pre-emergence action, section C (Table C3); details: visual grading after ca. 3 weeks vs untreated controls; for pest or weed control at 80 g/ha: Echinochloa crus-galli, pre-emergence, 504 h, read-out: pre-emergence activity against ECHCG in %
How it was run: (§4)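 Visual damage rating at ca. 3 weeks relative to untreated controls, expressed as % effect (100% = plants died, 0% = like controls). Pre-emergence treatment: WP or EC formulations applied to the soil surface over sown seeds in sandy loam, 600 l water/ha, 0.5% additive.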

Lolium rigidum (LOLRI) = experiment: Herbicidal pre-emergence action, section C (Table C5); details: visual grading after ca. 3 weeks; for pest or weed control at 80 g/ha: Lolium rigidum, pre-emergence, 504 h, read-out: pre-emergence activity against LOLRI in %
Text: as §3

[6] = test system: Polygonum convolvulus (POLCO); experiment: Herbicidal pre-emergence action, section C (Table C7); details: visual grading after ca. 3 weeks
How it was run: as §4

[7] = test system: Abutilon theophrasti (ABUTH); experiment: Herbicidal post-emergence action, section E (Table E1); details: assessed visually after ca. 3 weeks
Text: Seeds of mono- and dicotyledonous weed plants and crop plants were sown, in plastic or organic planting pots, in sandy loam, covered with soil and grown in a greenhouse under controlled growth conditions. 2 to 3 weeks after sowing, the test plants were sprayed in the single-leaf stage. The compounds according to the invention, formulated in form of wettable powders (WP) or as emulsifiable concentrates (EC), were sprayed onto the green plant parts as aqueous suspension or emulsion, with the addition of 0.5% of an additive, at an application rate of 600 l of water/ha (converted). The test plants were placed in the greenhouse for ca. 3 weeks under optimum growth conditions, and then the effect of the preparations was assessed visually in comparison with untreated controls (herbicidal effect in percent (%): 100% effect=plants have died off, 0% effect=as control plants).

Glycine max (GLXMA) = experiment: Post-emergence effects on crop plants, section F (Table F4); details: crop plant damage, application rate 80 g/ha
How it was run: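 Visual % damage versus untreated controls (100% = plants died, 0% = as control), assessed ca. 3 weeks after post-emergence spraying. Greenhouse plants in sandy loam were treated at the single-leaf stage with WP/EC formulations, 0.5% additive, 600 l water/ha, at 320 g/ha or below.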

[8] = Bassia scoparia, post-emergence, 504 h, application rate 320 g/ha, read-out: post-emergence activity against KCHSC in %
[9] = Abutilon theophrasti, pre-emergence, 504 h, application rate 320 g/ha, read-out: pre-emergence activity against ABUTH in %
[10] = Fallopia convolvulus, pre-emergence, 504 h, application rate 320 g/ha, read-out: pre-emergence activity against POLCO in %
[11] = Abutilon theophrasti, post-emergence, 504 h, application rate 320 g/ha, read-out: post-emergence activity against ABUTH in %

Row | Structure (SMILES) | pre-emergence activity against KCHSC in % (Kochia scoparia (KCHSC) [1]; application rate 320 g/ha) [%] | pre-emergence activity against VERPE in % (Veronica persica (VERPE); application rate 1280 g/ha) [%] | post-emergence activity against ABUTH in % ([2]; application rate 320 g/ha) [%] | post-emergence activity against KCHSC in % (Kochia scoparia (KCHSC) [3]; application rate 320 g/ha) [%] | pre-emergence activity against ABUTH in % ([4]; application rate 320 g/ha) [%] | pre-emergence activity against ECHCG in % ([5]; application rate 80 g/ha) [%] | pre-emergence activity against LOLRI in % (Lolium rigidum (LOLRI); application rate 320 g/ha) [%] | pre-emergence activity against POLCO in % ([6]; application rate 320 g/ha) [%] | post-emergence activity against ABUTH in % ([7]; application rate 80 g/ha) [%] | pre-emergence activity against KCHSC in % (Kochia scoparia (KCHSC) [1]; application rate 1280 g/ha) [%] | pre-emergence activity against POAAN in % (Poa annua (POAAN); application rate 320 g/ha) [%] | post-emergence activity against ABUTH in % ([7]; application rate 320 g/ha) [%] | post-emergence activity against GLXMA in % (Glycine max (GLXMA)) [%] | pest or weed control at 1280 g/ha (Kochia scoparia (KCHSC) [1]; application rate 1280 g/ha) [%] | pest or weed control at 1280 g/ha (Veronica persica (VERPE); application rate 1280 g/ha) [%] | pest or weed control at 80 g/ha (Lolium rigidum (LOLRI); application rate 80 g/ha) [%] | also measured
1 | Cc1cc2c(nc1-c1ccccc1F)N(C(=O)C1(C)CC(Cl)=NO1)CS2 (centres unmarked) [Example I-083] | 90 | 90 | 90 | 90 | 90 | 100 | 80 | 90 | 90 | – | – | – | – | – | – | – | pre-emergence activity against POAAN in % (Poa annua (POAAN); application rate 1280 g/ha): 100%
2 | CC1(C(=O)N2CSc3cc(Br)c(-c4ccccc4)nc32)CC(Cl)=NO1 (centres unmarked) [Example I-139] | – | 90 | – | – | 90 | – | 80 | 80 | – | 90 | 100 | 90 | 20 | – | – | – | post-emergence activity against ABUTH in % ([2]; application rate 1280 g/ha): 90%; post-emergence activity against KCHSC in % (Kochia scoparia (KCHSC) [3]; application rate 1280 g/ha): 90%; pre-emergence activity against ECHCG in % ([5]; application rate 320 g/ha): 100%
3 | COCC1(C(=O)N2CSc3cc(C)c(-c4ccccc4F)nc32)CC(Cl)=NO1 (centres unmarked) [Example I-128] | 90 | – | 90 | 90 | – | 100 | – | 90 | 80 | – | 100 | – | – | – | – | – | pre-emergence activity against VERPE in % (Veronica persica (VERPE); application rate 320 g/ha): 90%; pre-emergence activity against ABUTH in % ([4]; application rate 80 g/ha): 80%; pre-emergence activity against LOLRI in % (Lolium rigidum (LOLRI); application rate 80 g/ha): 100%
4 | CCOCCS(=O)(=O)N1C[S+]([O-])c2cc(C)c(-c3ccccc3F)nc21 (centres unmarked) [Example I-127] | – | – | – | – | – | – | – | – | – | – | – | – | – | 100 | 90 | 80 | pest or weed control at 320 g/ha (Kochia scoparia (KCHSC) [3]; [8]): 90%; pest or weed control at 320 g/ha [4, 9]: 90%; pest or weed control at 320 g/ha [6, 10]: 90%; pest or weed control at 80 g/ha ([7]; Abutilon theophrasti, post-emergence, 504 h, application rate 80 g/ha, read-out: post-emergence activity against ABUTH in %): 80%
5 | CCS(=O)(=O)N1CSc2cc(C)c(-c3ccccc3F)nc21 [Example I-060, 3-(ethylsulfonyl)-5-(2-fluorophenyl)-6-methyl-2,3-dihydro[1,3]thiazolo[4,5-b]pyridine] | – | – | – | – | – | – | – | – | – | – | – | – | – | 100 | 90 | 100 | pest or weed control at 320 g/ha (Poa annua (POAAN); application rate 320 g/ha): 100%; pest or weed control at 1280 g/ha ([2]; Abutilon theophrasti, 504 h, application rate 1280 g/ha, read-out: post-emergence activity against ABUTH in %): 90%; pest or weed control at 320 g/ha (Kochia scoparia (KCHSC) [3]; [8]): 90%; pest or weed control at 80 g/ha ([4]; Abutilon theophrasti, pre-emergence, 504 h, application rate 80 g/ha, read-out: pre-emergence activity against ABUTH in %): 90%; pest or weed control at 80 g/ha ([5]; application rate 80 g/ha): 100%; pest or weed control at 80 g/ha ([6]; Fallopia convolvulus, pre-emergence, 504 h, application rate 80 g/ha, read-out: pre-emergence activity against POLCO in %): 80%; pest or weed control at 320 g/ha [7, 11]: 80%
6 | Cc1cc2c(nc1-c1ccccc1F)NCS2 [Example I-007, 5-(2-fluorophenyl)-6-methyl-2,3-dihydro[1,3]thiazolo[4,5-b]pyridine] | – | – | – | – | – | – | – | – | – | – | – | – | – | 90 | 90 | 100 | pest or weed control at 320 g/ha (Poa annua (POAAN); application rate 320 g/ha): 100%; pest or weed control at 1280 g/ha (Kochia scoparia (KCHSC) [3]; Bassia scoparia, post-emergence, 504 h, application rate 1280 g/ha, read-out: post-emergence activity against KCHSC in %): 90%; pest or weed control at 320 g/ha [4, 9]: 80%; pest or weed control at 80 g/ha ([5]; application rate 80 g/ha): 100%; pest or weed control at 320 g/ha [6, 10]: 80%; pest or weed control at 320 g/ha [7, 11]: 80%
7 | Cc1cc2c(nc1-c1ccccc1F)N(C(=O)C13CCCC1C(Cl)=NO3)CS2 (centres unmarked) [Example I-104] | 90 | 90 | 90 | 90 | 80 | 100 | 100 | – | 80 | – | 100 | – | – | – | – | – | pre-emergence activity against POLCO in % ([6]; application rate 80 g/ha): 80%
8 | COC(=O)CCC(=O)N1CSc2cc(C)c(-c3ccccc3F)nc21 [Example I-010] | – | 90 | 90 | 90 | 80 | 100 | 100 | – | – | 100 | 100 | 80 | 0 | – | – | – | pre-emergence activity against POLCO in % ([6]; application rate 80 g/ha): 80%
9 | Cc1ccccc1-c1nc2c(cc1C)SCN2C(=O)C1(C)CC(Cl)=NO1 (centres unmarked) [Example I-137] | 90 | – | – | 90 | 90 | 100 | 100 | 80 | – | – | 100 | 80 | – | – | – | – | pre-emergence activity against VERPE in % (Veronica persica (VERPE); application rate 320 g/ha): 90%; post-emergence activity against ABUTH in % ([2]; application rate 1280 g/ha): 90%
10 | Cc1cc2c(nc1-c1ccccc1)N(C(=O)C1(C)CC(Cl)=NO1)CS2 (centres unmarked) [Example I-088] | – | 90 | 90 | 90 | 90 | – | – | 90 | – | 90 | 100 | 90 | 0 | – | – | – | pre-emergence activity against ECHCG in % ([5]; application rate 320 g/ha): 100%
